Laboratory results: US6953812B2, “Glucagon antagonists/inverse agonists” (Novo Nordisk, Inc., priority 2000, dated 2005)

What was measured:
human glucagon receptor = target: T1, human glucagon receptor (Homo sapiens, UniProt P47871); assay: Glucagon Binding Assay (II); conditions: membranes of BHK cells transfected with human glucagon receptor, 125I-glucagon, SPA; read-out: Glu Bd Assay (II) IC50
T1 construct: expressed in transfected cells; host or cells: BHK (baby hamster kidney) cells, membrane preparation
Method: Glucagon Binding Assay (II)
BHK (baby hamster kidney cell line) cells are transfected with the human glucagon receptor and a membrane preparation of the cells is prepared.
All steps in the membrane preparation are kept on ice or performed at 4° C. BHK cells are harvested and centrifuged. The pellet is resuspended in homogenisation buffer (25 mM HEPES, pH=7.4, 2.5 mM CaCl2, 1.0 mM MgCl2, 250 mg/L bacitracin, 0.1 mM Pefabloc), homogenised 2×10 sec using Polytron 10-35 homogenizer (Kinematica) and added the same amount of homogenisation buffer as used for resuspension. After centrifugation (15 min at 2000×g) the supernatant is transferred to cold centrifuge tubes and centrifuged for 45 min at 40.000×g. The pellet is resuspended in homogenisation buffer, homogenised 2×10 sec (Polytron) and additional homogenisation buffer is added. The suspension is centrifuged for 45 min at 40.000×g and the pellet is resuspended in resuspension buffer (25 mM HEPES, pH=7.4, 2.5 mM CaCl2, 1.0 mM MgCl2) and homogenised 2×10 sec. (Polytron). […] Stabilisation buffer (25 mM HEPES, pH=7.4, 2.5 mM CaCl2, 1.0 mM MgCl2, 1% bovine serum albumin, 500 mg/L bacitracin, 2.5 M sucrose) is added and the membrane preparation is stored at −80° C.
(§1) The glucagon binding assay is carried out in opti plates (Polystyrene Microplates, Packard). 50 μL assay buffer (25 mM HEPES, pH=7.5, 2.5 mM CaCl2, 1.0 mM MgCl2, 0.003% Tween-20, 0.005% bacitracin, 0.05% sodium azide) and 5 μL glucagon or test compound (in DMSO) are added to each well. […] Finally 50 μL WGA beads containing 1 mg beads are transferred to the well. The opti plates are incubated for 4 hours on a shaker and then settled for 8-48 hours. The opti plates are counted in a Topcounter. Non-specific binding is determined with 500 nM of glucagon.

human GIP receptor = target: T2, human GIP receptor (Homo sapiens, UniProt P48546); assay: GIP Binding Assay; conditions: membranes of BHK cells transfected with human GIP receptor, 125I-GIP, SPA; read-out: GIP Bd Assay IC50
T2 construct: expressed in transfected cells; host or cells: BHK (baby hamster kidney) cells, membrane preparation
T2 sequence (P48546 22-466): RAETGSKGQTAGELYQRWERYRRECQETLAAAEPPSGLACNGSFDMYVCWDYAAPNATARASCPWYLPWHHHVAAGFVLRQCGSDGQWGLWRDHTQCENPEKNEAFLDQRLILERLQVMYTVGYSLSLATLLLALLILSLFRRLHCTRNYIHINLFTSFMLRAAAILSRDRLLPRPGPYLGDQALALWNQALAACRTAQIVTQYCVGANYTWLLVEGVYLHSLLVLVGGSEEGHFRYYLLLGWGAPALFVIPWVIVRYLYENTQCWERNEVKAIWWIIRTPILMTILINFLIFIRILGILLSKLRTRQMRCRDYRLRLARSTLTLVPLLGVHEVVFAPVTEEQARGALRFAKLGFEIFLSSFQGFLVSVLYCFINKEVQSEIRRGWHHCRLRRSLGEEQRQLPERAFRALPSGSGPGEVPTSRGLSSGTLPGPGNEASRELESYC
Method: BHK (baby hamster kidney cell line) cells are transfected with the human GIP receptor and a membrane preparation of the cells is prepared.
All steps in the membrane preparation are kept on ice or performed at 4° C. BHK cells are harvested and centrifuged. The pellet is resuspended in homogenisation buffer (25 mM) HEPES, pH=7.4, 2.5 mM CaCl2, 1.0 mM MgCl2, 250 mg/L bacitracin, 0.1 mM Pefabloc), homogenised 2×10 sec using Polytron 10-35 homogenizer (Kinematica) and added the same amount of homogenisation buffer as used for resuspension. After centrifugation (15 min at 2000×g) the supernatant is transferred to cold centrifuge tubes and centrifuged for 45 min at 40.000×g. The pellet is resuspended in homogenisation buffer, homogenised 2×10 sec (Polytron) and additional homogenisation buffer is added. The suspension is centrifuged for 45 min at 40.000×g and the pellet is resuspended in resuspension buffer (25 mM HEPES, pH=7.4, 2.5 mM CaCl2, 1.0 mM MgCl2) and homogenised 2×10 sec. (Polytron). […] Stabilisation buffer (25 mM HEPES, pH=7.4, 2.5 mM CaCl2, 1.0 mM MgCl2, 1% bovine serum albumin, 500 mg/L bacitracin, 2.5 M sucrose) is added and the membrane preparation is stored at −80° C.
as §1, with “The GIP” for “The glucagon”, “μL GIP” for “μL glucagon”, “for 3.5” for “for 4”, “a Top-counter.” for “a Topcounter.”, “of GIP.” for “of glucagon.”

T1 sequence (P47871 26-477): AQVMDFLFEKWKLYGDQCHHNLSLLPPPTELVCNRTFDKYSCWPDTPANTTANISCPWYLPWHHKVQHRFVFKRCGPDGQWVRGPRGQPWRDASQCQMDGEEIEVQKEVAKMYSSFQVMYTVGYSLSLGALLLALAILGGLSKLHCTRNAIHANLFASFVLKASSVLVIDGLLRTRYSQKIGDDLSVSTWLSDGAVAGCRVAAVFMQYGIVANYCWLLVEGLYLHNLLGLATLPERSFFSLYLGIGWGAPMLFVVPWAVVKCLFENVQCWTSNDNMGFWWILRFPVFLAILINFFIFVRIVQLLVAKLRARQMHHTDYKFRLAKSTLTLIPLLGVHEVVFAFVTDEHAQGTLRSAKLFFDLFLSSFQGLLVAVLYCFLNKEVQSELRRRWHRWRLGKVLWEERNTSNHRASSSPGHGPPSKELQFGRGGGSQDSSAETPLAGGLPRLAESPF

Compound	IC50 (human glucagon receptor)	IC50 (human GIP receptor)
CC(C)(C)C1CCC(N(Cc2ccc(C(=O)NC[C@@H](O)C(=O)O)cc2)C(=O)Nc2ccc3c(c2)C(F)(F)OC(F)(F)O3)CC1 (stereo partly drawn) [Example 45, (R)-3-{4-[1-(4-tert-Butylcyclohexyl)-3-(2,2,4,4-tetrafluoro-4H-benzo[1,3]dioxin-6-yl)ureidomethyl]benzoylamino}-2-hydroxypropionic acid]	0.061 µM	0.373 µM
CC(C)(C)c1ccc(N(Cc2ccc(C(=O)NC[C@@H](O)C(=O)O)cc2)C(=O)Nc2ccc(F)c(F)c2)cc1 [Example 46, (R)-3-{4-[1-(4-tert-Butylphenyl)-3-(3,4-difluorophenyl)ureidomethyl]benzoylamino}-2-hydroxypropionic acid]	0.507 µM	1.17 µM
O=C(NC[C@@H](O)C(=O)O)c1ccc(CN(C(=O)Nc2ccc(F)c(F)c2)c2ccc(C3CCCCC3)cc2)cc1 [Example 47, (R)-3-{4-[1-(4-Cyclohexylphenyl)-3-(3,4-difluorophenyl)ureidomethyl]benzoylamino}-2-hydroxypropionic acid]	0.064 µM	0.665 µM
O=C(NC[C@@H](O)C(=O)O)c1ccc(CN(C(=O)Nc2ccc(F)c(F)c2)c2ccc(C3=CCCCC3)cc2)cc1 [Example 48, (R)-3-{4-[1-(4-Cyclohex-1-enylphenyl)-3-(3,4-difluorophenyl)ureidomethyl]benzoylamino}-2-hydroxypropionic acid]	0.182 µM	> 3 µM
O=C(NC[C@@H](O)C(=O)O)c1ccc(CN(C(=O)Nc2ccc(Cl)c(C(F)(F)F)c2)c2ccc(C3CCCCC3)cc2)cc1 [Example 49, (R)-3-{4-[3-(4-Chloro-3-trifluoromethylphenyl)-1-(4-cyclohexylphenyl)ureidomethyl]benzoylamino}-2-hydroxypropionic acid]	0.025 µM	0.16 µM
CC(C)c1ccc(NC(=O)N(Cc2ccc(C(=O)NC[C@@H](O)C(=O)O)cc2)c2ccc(C3CCCCC3)cc2)cc1 [Example 51, (R)-3-{4-[1-(4-Cyclohexylphenyl)-3-(4-isopropylphenyl)ureidomethyl]benzoylamino}-2-hydroxypropionic acid]	0.088 µM	0.831 µM
O=C(NC[C@@H](O)C(=O)O)c1ccc(CN(C(=O)Nc2ccc(Cl)c(Cl)c2)c2ccc(C3=CCCCC3)cc2)cc1 [Example 52, (R)-3-{4-[1-(4-Cyclohex-1-enylphenyl)-3-(3,4-dichlorophenyl)ureidomethyl]benzoylamino}-2-hydroxypropionic acid]	0.047 µM	0.341 µM
O=C(NC[C@@H](O)C(=O)O)c1ccc(CN(C(=O)Nc2cc(F)cc(F)c2)c2ccc(C3CCCCC3)cc2)cc1 [Example 55, (R)-3-{4-[1-(4-Cyclohexylphenyl)-3-(3,5-difluorophenyl)ureidomethyl]benzoylamino}-2-hydroxypropionic acid]	0.05 µM	0.427 µM
CC(C)(C)C1CCC(N(Cc2ccc(C(=O)NC[C@@H](O)C(=O)O)cc2)C(=O)Cc2ccc(OC(F)(F)F)cc2)CC1 (stereo partly drawn) [Example 56, (R)-3-[4-({(4-tert-Butylcyclohexyl)-[2-(4-trifluoromethoxyphenyl)acetyl]amino}methyl)benzoylamino]-2-hydroxypropionic acid]	0.228 µM	1.37 µM
O=C(NC[C@@H](O)C(=O)O)c1ccc(CN(CC(c2ccccc2)c2ccccc2)C(=O)Cc2cc(F)cc(C(F)(F)F)c2)cc1 [Example 58, (R)-3-[4-({(2,2-Diphenylethyl)-[2-(3-fluoro-5-trifluoromethylphenyl)acetyl]amino}methyl)benzoylamino]-2-hydroxypropionic acid]	0.957 µM	> 3 µM
O=C(NC[C@@H](O)C(=O)O)c1ccc(CN(CC(c2ccccc2)c2ccccc2)C(=O)Cc2ccc(OC(F)(F)F)cc2)cc1 [Example 60, (R)-3-[4-({(2,2-Diphenylethyl)-[2-(4-trifluoromethoxyphenyl)acetyl]amino}methyl)benzoylamino]-2-hydroxypropionic acid]	1.02 µM	> 3 µM

More lines, in order of falling IC50 (human glucagon receptor), values ahead:

IC50 (human glucagon receptor)	IC50 (human GIP receptor)	Compound
0.594 µM	> 3 µM	O=C(NC[C@@H](O)C(=O)O)c1ccc(CN(CC(c2ccccc2)c2ccccc2)C(=O)c2csc3ccc(Cl)cc23)cc1 [Example 59, (R)-3-(4-{[(5-Chlorobenzo[b]thiophene-3-carbonyl)-(2,2-diphenylethyl)amino]methyl}benzoylamino)-2-hydroxypropionic acid]
0.439 µM	> 3 µM	CC(C)(C)C1CCC(N(Cc2ccc(C(=O)NC[C@@H](O)C(=O)O)cc2)C(=O)Cc2cc(F)cc(C(F)(F)F)c2)CC1 (stereo partly drawn) [Example 57, (R)-3-[4-({(4-tert-Butylcyclohexyl)-[2-(3-fluoro-5-trifluoromethylphenyl)acetyl]amino}methyl)benzoylamino]-2-hydroxypropionic acid]
0.39 µM	> 3 µM	CC(=O)c1ccc(NC(=O)N(Cc2ccc(C(=O)NC[C@@H](O)C(=O)O)cc2)c2ccc(C3CCCCC3)cc2)cc1 [Example 53, (R)-3-{4-[3-(4-Acetylphenyl)-1-(4-cyclohexylphenyl)ureidomethyl]benzoylamino}-2-hydroxypropionic acid]
0.119 µM	> 3 µM	O=C(NC[C@@H](O)C(=O)O)c1ccc(CN(C(=O)Nc2ccc(F)c([N+](=O)[O-])c2)c2ccc(C3CCCCC3)cc2)cc1 [Example 50, (R)-3-{4-[1-(4-Cyclohexylphenyl)-3-(4-fluoro-3-nitrophenyl)ureidomethyl]benzoylamino}-2-hydroxypropionic acid]
0.041 µM	0.34 µM	O=C(NC[C@@H](O)C(=O)O)c1ccc(CN(C(=O)Nc2ccc(Cl)c(Cl)c2)c2ccc(C3CCCCC3)cc2)cc1 [Example 42, (R)-3-{4-[1-(4-Cyclohexylphenyl)-3-(3,4-dichlorophenyl)ureidomethyl]benzoylamino}-2-hydroxypropionic acid]
0.039 µM	0.291 µM	CC(C)(C)c1ccc(N(Cc2ccc(C(=O)NC[C@@H](O)C(=O)O)cc2)C(=O)Nc2ccc3c(c2)C(F)(F)OC(F)(F)O3)cc1 [Example 44, (R)-3-{4-[1-(4-tert-Butylphenyl)-3-(2,2,4,4-tetrafluoro-4H-benzo[1,3]dioxin-6-yl)ureidomethyl]benzoylamino}-2-hydroxypropionic acid]
0.017 µM	0.226 µM	O=C(NC[C@@H](O)C(=O)O)c1ccc(CN(C(=O)Nc2ccc3c(c2)C(F)(F)OC(F)(F)O3)c2ccc(C3CCCCC3)cc2)cc1 [Example 43, (R)-3-{4-[1-(4-Cyclohexylphenyl)-3-(2,2,4,4-tetrafluoro-4H-benzo[1,3]dioxin-6-yl)ureidomethyl]benzoylamino}-2-hydroxypropionic acid]
